Measured values reported in patent US10981911B2, “Imidazopyrrolopyridine as inhibitors of the JAK family of kinases” (Janssen Pharmaceutica NV, priority 2016, dated 2021).

Assays:
Assay type in all cases: biochemical
[1] = target: JAK1-JH1JH2 (Homo sapiens (Human), UniProt P23458); assay: Enzymatic inhibition assay (RapidFire HTMS), JAK1; details: 12.5 μM ATP, 200 μM substrate; read-out: JAK1-JH2JH1 IC50
Procedure, shortened: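 Quenched with 0.5% TFA plus internal-standard peptide; phosphorylated product quantified by RapidFire C4 SPE–ESI-MS, 11-point 1:3 or 1:4 dilutions in duplicate.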

[2] = target: JAK2-JH1JH2 (Homo sapiens (Human), UniProt O60674); assay: Enzymatic inhibition assay (RapidFire HTMS), JAK2; details: 30 μM ATP, 40 μM substrate
Description: LC/MS grade Water and Acetonitrile (ACN), were purchased from HoneyWell, Burdick & Jackson (Muskegon, Mich., USA). Dimethylsulfoxide 99.8% (DMSO) and Trifluoroacetic Acid 99.5% (TFA) were purchased from EMD Chemical (Gibbstown, N.J., USA). Adenosine triphosphate (ATP), 4-Morpholinepropanesulfonic acid (MOPS), Magnesium chloride (MgCl2), ethylenediaminetetraacetic acid (EDTA), dithiothreitol (DTT), formic acid >95% (FA) and Tween-20 were purchased from Sigma (St Louis, Mo., USA). 384-well polypropylene plates, Cat #781280 were purchased from Greiner (Monroe, N.C.), RapidFire™ cartridge A C4 Column (Agilent Technologies, Santa Clara, Calif.).
The HTMS experiments were performed in positive ionization mode on a RapidFire 300 instrument (Agilent Technologies, Santa Clara, Calif.), coupled with an ABSiex QTrap 4000 system with an Electrospray Ionization source (RF-MS) (Concord, ON, Canada). […] The entire system was operated using the RapidFire software interfaced with Analyst software for the mass spectrometer.
11-point dosing series were made for each compound by serially diluting 1:3 or 1:4 in DMSO, with point 12 being a DMSO control. From the serial dilution plates, sample was transferred to a 384 wells assay plate (#781280, Greiner, Monroe, N.C.) using Labcyte Echo (Sunnyvale, Calif.), or Biosero ATS (San Diego, Calif.). The compounds were tested in duplicate. Column 12 was used for positive controls, and column 24 contained negative controls with no enzyme added. A compound from our internal collection, with inhibitory activity for JAK isoforms, was used as a reference compound. The final concentration of DMSO was ≤0.25% in a 20 μL reaction. […] The Tyk2 enzyme was pre-incubated with 2 mM ATP for 30 min prior to the reaction initiation. Immediately after the addition of the enzyme to the reaction mixture, the plate was centrifuged at 1000 rpm for 1 minute and incubated at 25° C. for 45 minutes for JAK 3 and 90 minutes for JAK1, JAK2 and Tyk2. The reaction was quenched by the addition of 20 μL of 0.5% TFA containing 0.15 μM of internal standard peptide using Multidrop Combi reagent dispenser (Thermo Scientific, Waltham, Mass.). […] After the quench, the assay plate was centrifuged at 3000 rpm for 3 minutes and sealed with pierceable aluminum foil (Cat #06644-001, Agilent) using a PlateLoc (Agilent Technologies, Santa Clara, Calif.). The plates then were transferred on to the RapidFire for the MS analysis. Compound inhibition was assessed by a decrease of the phosphorylated product levels in sample wells compared to the non-inhibited enzyme reaction.
The sample analysis on the RapidFire was performed using a mobile phase A consisting of Water/TFA/FA (100:0.01:0.1, v/v/v), a mobile phase B consisting of ACN/Water/TFA/FA (80:20:0.01:0.1, v/v/v). […] The samples were aspirated directly from the 384 assay plate and delivered onto RF-MS microscale solid-phase C4 extraction cartridge (Type A). The undesired component such as salt, cofactor, detergent and large protein were washed out and the retained analytes (substrate, product and IS) were coeluted directly onto the ABSiex Qtrap 4000 system.

[3] = target: JAK3-JH1JH2 (Homo sapiens (Human), UniProt P52333); assay: Enzymatic inhibition assay (RapidFire HTMS), JAK3; details: 150 μM ATP, 40 μM substrate
Procedure, shortened: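 Compounds tested in duplicate over 11-point 1:3 or 1:4 dilution series; no-enzyme wells as negative control. After 45 min at 25 °C, TFA quench with internal standard, and phosphorylated product quantified by RapidFire–QTrap mass spectrometry relative to the uninhibited reaction.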

[4] = target: Tyk2-JH1JH2 (Homo sapiens (Human), UniProt P29597, C1142A/C936A); assay: Enzymatic inhibition assay (RapidFire HTMS), Tyk2; details: 50 μM ATP, 200 μM substrate
Procedure, shortened: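 Compounds were tested in duplicate as 11-point 1:3 or 1:4 DMSO dilutions (≤0.25% DMSO final) in 20 μL reactions at 25 °C for 90 min, with Tyk2 pre-incubated 30 min with 2 mM ATP. Reactions were quenched with TFA plus internal standard peptide, and phosphorylated product was quantified by RapidFire C4 SPE–ESI MS.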

Chain of Tyk2-JH1JH2 (P29597 580-1182 C936A/C1142A): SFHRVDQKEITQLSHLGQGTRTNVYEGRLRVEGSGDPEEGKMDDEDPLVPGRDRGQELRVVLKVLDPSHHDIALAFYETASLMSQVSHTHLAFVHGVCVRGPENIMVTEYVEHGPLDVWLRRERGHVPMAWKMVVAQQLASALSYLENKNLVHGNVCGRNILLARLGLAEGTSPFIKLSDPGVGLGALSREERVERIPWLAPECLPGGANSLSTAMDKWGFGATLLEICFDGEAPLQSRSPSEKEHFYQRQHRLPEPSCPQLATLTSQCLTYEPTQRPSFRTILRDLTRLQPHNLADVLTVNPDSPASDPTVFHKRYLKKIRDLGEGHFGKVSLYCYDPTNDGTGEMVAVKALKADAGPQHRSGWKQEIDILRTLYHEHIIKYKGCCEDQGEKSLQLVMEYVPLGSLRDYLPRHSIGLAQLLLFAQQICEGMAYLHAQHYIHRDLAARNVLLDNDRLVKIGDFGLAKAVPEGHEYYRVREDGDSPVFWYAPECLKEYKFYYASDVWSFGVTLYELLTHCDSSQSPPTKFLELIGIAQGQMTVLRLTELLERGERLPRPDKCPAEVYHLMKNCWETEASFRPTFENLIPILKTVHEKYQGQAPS
Chain of JAK3-JH1JH2 (P52333 512-1124): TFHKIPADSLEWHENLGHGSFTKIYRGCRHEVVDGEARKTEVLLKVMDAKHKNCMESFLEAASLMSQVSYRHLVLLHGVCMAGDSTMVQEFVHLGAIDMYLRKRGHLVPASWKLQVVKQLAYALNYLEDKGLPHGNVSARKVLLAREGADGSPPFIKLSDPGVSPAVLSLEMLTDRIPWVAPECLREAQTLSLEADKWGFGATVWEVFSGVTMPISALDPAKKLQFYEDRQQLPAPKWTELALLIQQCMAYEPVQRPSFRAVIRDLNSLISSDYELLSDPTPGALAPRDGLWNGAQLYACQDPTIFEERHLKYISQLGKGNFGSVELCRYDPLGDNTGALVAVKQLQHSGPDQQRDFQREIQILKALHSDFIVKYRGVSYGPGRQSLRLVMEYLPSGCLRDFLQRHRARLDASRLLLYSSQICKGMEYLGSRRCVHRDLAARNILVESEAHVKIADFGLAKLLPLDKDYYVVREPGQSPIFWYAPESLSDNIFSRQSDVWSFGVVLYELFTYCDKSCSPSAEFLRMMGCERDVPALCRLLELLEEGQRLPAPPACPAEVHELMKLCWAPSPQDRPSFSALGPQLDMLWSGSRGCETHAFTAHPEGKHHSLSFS
Chain of JAK1-JH1JH2 (P23458 574-1154): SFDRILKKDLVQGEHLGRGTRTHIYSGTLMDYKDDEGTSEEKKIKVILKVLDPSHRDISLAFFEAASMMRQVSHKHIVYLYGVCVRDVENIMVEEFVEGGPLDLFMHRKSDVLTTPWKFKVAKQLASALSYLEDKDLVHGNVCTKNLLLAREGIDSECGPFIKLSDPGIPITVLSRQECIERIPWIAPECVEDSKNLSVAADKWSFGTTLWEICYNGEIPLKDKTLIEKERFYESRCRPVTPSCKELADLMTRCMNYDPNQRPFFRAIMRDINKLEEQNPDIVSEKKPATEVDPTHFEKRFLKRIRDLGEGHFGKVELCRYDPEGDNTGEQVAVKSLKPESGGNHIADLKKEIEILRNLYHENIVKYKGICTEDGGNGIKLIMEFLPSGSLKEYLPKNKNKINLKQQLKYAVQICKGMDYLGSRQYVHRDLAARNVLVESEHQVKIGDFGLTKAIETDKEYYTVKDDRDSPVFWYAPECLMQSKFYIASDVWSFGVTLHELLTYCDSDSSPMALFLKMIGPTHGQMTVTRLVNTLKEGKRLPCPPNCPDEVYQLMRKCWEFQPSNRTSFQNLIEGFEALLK
Chain of JAK2-JH1JH2 (O60674 532-1132): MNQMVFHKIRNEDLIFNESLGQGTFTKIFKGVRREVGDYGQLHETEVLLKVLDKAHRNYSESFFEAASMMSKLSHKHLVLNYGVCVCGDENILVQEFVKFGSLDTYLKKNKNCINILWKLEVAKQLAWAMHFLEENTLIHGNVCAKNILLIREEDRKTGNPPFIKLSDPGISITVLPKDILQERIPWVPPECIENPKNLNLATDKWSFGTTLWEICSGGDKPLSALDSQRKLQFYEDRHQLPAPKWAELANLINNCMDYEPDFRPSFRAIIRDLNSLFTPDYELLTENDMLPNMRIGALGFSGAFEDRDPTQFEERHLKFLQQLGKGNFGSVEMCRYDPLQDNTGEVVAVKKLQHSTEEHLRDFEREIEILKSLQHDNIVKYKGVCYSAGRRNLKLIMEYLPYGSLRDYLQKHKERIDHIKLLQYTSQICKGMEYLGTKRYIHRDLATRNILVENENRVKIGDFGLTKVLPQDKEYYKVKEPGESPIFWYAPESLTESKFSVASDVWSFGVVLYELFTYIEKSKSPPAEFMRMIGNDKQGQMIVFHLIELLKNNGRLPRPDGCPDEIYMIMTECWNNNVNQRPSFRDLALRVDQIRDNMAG

| IC50 [1] [nM] | IC50 [2] [nM] | IC50 [3] [nM] | IC50 [4] [nM] | Structure (SMILES) |
| --- | --- | --- | --- | --- |
| 0.2 | 24.4 | 439 | 7.8 | N#CC[C@H]1CC[C@H](n2c(CC(=O)N3CC[C@H](O)C3)nc3cnc4[nH]ccc4c32)CC1 [Ex. 42, 2-((1S,4r)-4-(2-(2-((S)-3-Hydroxypyrrolidin-1-yl)-2-oxoethyl)imidazo[4,5-d]pyrrolo[2,3-b]pyridin-1(6H)-yl)cyclohexyl)acetonitrile] |
| 0.2 | 5.4 | 52.3 | 6 | CC(C)(C)CNC(=O)Cc1nc2cnc3[nH]ccc3c2n1[C@H]1CC[C@H](CC#N)CC1 [Ex. 44, 2-(1-((1r,4r)-4-(Cyanomethyl)cyclohexyl)-1,6-dihydroimidazo[4,5-d]pyrrolo[2,3-b]pyridin-2-yl)-N-neopentylacetamide] |
| 0.2 | 2.3 | 38.9 | 5.1 | N#CC[C@H]1CC[C@H](n2c(CC(=O)N[C@H]3CC[C@@H](O)CC3)nc3cnc4[nH]ccc4c32)CC1 [Ex. 47, 2-(1-((1r,4r)-4-(Cyanomethyl)cyclohexyl)-1,6-dihydroimidazo[4,5-d]pyrrolo[2,3-b]pyridin-2-yl)-N-((1S,4S)-4-hydroxycyclohexyl)acetamide] |
| 0.2 | 43.5 | 249 | 4.2 | N#CC[C@H]1CC[C@H](n2c(CC(=O)N3CCCC3)nc3cnc4[nH]ccc4c32)CC1 [Ex. 49, 2-((1r,4r)-4-(2-(2-Oxo-2-(pyrrolidin-1-yl)ethyl)imidazo[4,5-d]pyrrolo[2,3-b]pyridin-1(6H)-yl)cyclohexyl)acetonitrile] |
| 0.2 | 2.1 | 42 | 4.2 | N#CC[C@H]1CC[C@H](n2c(CC(=O)NC34CCC(C(N)=O)(CC3)C4)nc3cnc4[nH]ccc4c32)CC1 [Ex. 54, 4-(2-(1-((1r,4r)-4-(Cyanomethyl)cyclohexyl)-1,6-dihydroimidazo[4,5-d]pyrrolo[2,3-b]pyridin-2-yl)acetamido)bicyclo[2.2.1]heptane-1-carboxamide] |
| 0.2 | 5.6 | 69.5 | 3.4 | N#CC[C@H]1CC[C@H](n2c(CC(=O)NCC(F)(F)F)nc3cnc4[nH]ccc4c32)CC1 [Ex. 57, 2-(1-((1r,4r)-4-(Cyanomethyl)cyclohexyl)-1,6-dihydroimidazo[4,5-d]pyrrolo[2,3-b]pyridin-2-yl)-N-(2,2,2-trifluoroethyl)acetamide] |
| 0.3 | 6.7 | 122 | 7.2 | CC(C)(O)CCNC(=O)Cc1nc2cnc3[nH]ccc3c2n1[C@H]1CC[C@H](CC#N)CC1 [Ex. 59, 2-(1-((1r,4r)-4-(Cyanomethyl)cyclohexyl)-1,6-dihydroimidazo[4,5-d]pyrrolo[2,3-b]pyridin-2-yl)-N-(3-hydroxy-3-methylbutyl)acetamide] |
| 0.3 | 25.7 | 219 | 6.3 | CC(C)/C(=N/O)NCc1nc2cnc3[nH]ccc3c2n1[C@H]1CC[C@H](CC#N)CC1 [Ex. 61, (EZ)—N-((1-((1r,4r)-4-(cyanomethyl)cyclohexyl)-1,6-dihydroimidazo[4,5-d]pyrrolo[2,3-b]pyridin-2-yl)methyl)-N-hydroxyisobutyrimidamide] |
| 0.3 | 2.1 | 30.6 | 2.6 | CC(C)CN1CCC(NC(=O)Cc2nc3cnc4[nH]ccc4c3n2[C@H]2CC[C@H](CC#N)CC2)CC1 [Ex. 62, 2-(1-((1r,4r)-4-(Cyanomethyl)cyclohexyl)-1,6-dihydroimidazo[4,5-d]pyrrolo[2,3-b]pyridin-2-yl)-N-(1-isobutylpiperidin-4-yl)acetamide] |

Continued, compound first:

| Structure (SMILES) | IC50 [1] [nM] | IC50 [2] [nM] | IC50 [3] [nM] | IC50 [4] [nM] |
| --- | --- | --- | --- | --- |
| N#CC[C@H]1CC[C@H](n2c(CC(=O)NCCOc3ccncc3)nc3cnc4[nH]ccc4c32)CC1 [Ex. 43, 2-(1-((1r,4r)-4-(Cyanomethyl)cyclohexyl)-1,6-dihydroimidazo[4,5-d]pyrrolo[2,3-b]pyridin-2-yl)-N-(2-(pyridin-4-yloxy)ethyl)acetamide] | 0.2 | 5.1 | 87.4 | 5.7 |
| N#CC[C@H]1CC[C@H](n2c(CC(=O)NCc3ccc(F)cc3)nc3cnc4[nH]ccc4c32)CC1 [Ex. 45, 2-(1-((1r,4r)-4-(Cyanomethyl)cyclohexyl)-1,6-dihydroimidazo[4,5-d]pyrrolo[2,3-b]pyridin-2-yl)-N-(4-fluorobenzyl)acetamide] | 0.2 | 6.1 | 183 | 12.2 |
| N#CC[C@H]1CC[C@H](n2c(CNC(=O)Oc3ccccc3)nc3cnc4[nH]ccc4c32)CC1 [Ex. 46, Phenyl ((1-((1r,4r)-4-(cyanomethyl)cyclohexyl)-1,6-dihydroimidazo[4,5-d]pyrrolo[2,3-b]pyridin-2-yl)methyl)carbamate] | 0.2 | 14.5 | 214 | 5.5 |
| N#CC[C@H]1CC[C@H](n2c(C(=O)N3CCC(O)(c4ccccc4)C3)nc3cnc4[nH]ccc4c32)CC1 (stereo partly drawn) [Ex. 50, 2-((1r,4r)-4-(2-(3-Hydroxy-3-phenylpyrrolidine-1-carbonyl)imidazo[4,5-d]pyrrolo[2,3-b]pyridin-1(6H)-yl)cyclohexyl)acetonitrile] | 0.2 | 4 | 99.9 | 21 |
| N#CC[C@H]1CC[C@H](n2c(-c3cnc(N)nc3)nc3cnc4[nH]ccc4c32)CC1 [Ex. 51, 2-((1r,4r)-4-(2-(2-Aminopyrimidin-5-yl)imidazo[4,5-d]pyrrolo[2,3-b]pyridin-1(6H)-yl)cyclohexyl)acetonitrile] | 0.2 | 3.2 | 127 | 5.8 |
| N#CC[C@H]1CC[C@H](n2c(-c3ccnc(N)n3)nc3cnc4[nH]ccc4c32)CC1 [Ex. 53, 2-((1r,4r)-4-(2-(2-Aminopyrimidin-4-yl)imidazo[4,5-d]pyrrolo[2,3-b]pyridin-1(6H)-yl)cyclohexyl)acetonitrile] | 0.2 | 3.2 | 61.8 | 9 |
| N#CC[C@H]1CC[C@H](n2c(-c3ncc[nH]3)nc3cnc4[nH]ccc4c32)CC1 [Ex. 56, 2-((1r,4r)-4-(2-(1H-Imidazol-2-yl)imidazo[4,5-d]pyrrolo[2,3-b]pyridin-1(6H)-yl)cyclohexyl)acetonitrile] | 0.2 | 1.9 | 32.9 | 7.2 |
| N#CC[C@H]1CC[C@H](n2c(CC(=O)NC34CCC(C(N)=O)(CC3)CC4)nc3cnc4[nH]ccc4c32)CC1 [Ex. 58, 4-(2-(1-((1r,4r)-4-(Cyanomethyl)cyclohexyl)-1,6-dihydroimidazo[4,5-d]pyrrolo[2,3-b]pyridin-2-yl)acetamido)bicyclo[2.2.2]octane-1-carboxamide] | 0.3 | 1.4 | 31.4 | 3.3 |
| N#CC[C@H]1CC[C@H](n2c(-c3cc[nH]n3)nc3cnc4[nH]ccc4c32)CC1 [Ex. 60, 2-((1r,4r)-4-(2-(1H-Pyrazol-3-yl)imidazo[4,5-d]pyrrolo[2,3-b]pyridin-1(6H)-yl)cyclohexyl)acetonitrile] | 0.3 | 1.7 | 72 | 3.4 |
